Measurements as given in patent US20200390100A1, “SUBSTITUTED N-HETEROCYCLYL- AND N-HETEROARYL-TETRAHYDROPYRIMIDINONES AND THE SALTS THEREOF, AND THE USE OF SAME AS HERBICIDAL ACTIVE SUBSTANCES” (Bayer Aktiengesellschaft, priority 2017, published 2020).

Columns and labels:
Format in all cases: in vivo
[1] = system: Stellaria media; assay: Herbicidal post-emergence action (Part 2), 1280 g/ha; details: application rate 1280 g/ha, rated visually after about 3 weeks, Table C7
Method in brief: (§1)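 Sow weeds in sandy loam pots; grow in greenhouse 2 to 3 weeks to one-leaf stage; spray formulated compound with 0.5% additive at 600 liters per hectare; hold about 3 weeks; rate activity visually against untreated controls on a 0 to 100% scale.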

[2] = system: Matricaria inodora; assay: as above; details: application rate 1280 g/ha, rated visually after about 3 weeks, Table C6
Method in brief: as §1

[3] = system: Setaria viridis; assay: as above; details: application rate 1280 g/ha, rated visually after about 3 weeks, Table C3
Method in brief: as §1

[4] = system: Echinochloa crus-galli; assay: as above; details: post-emergence (Part 2), application rate 1280 g/ha, rated visually after about 3 weeks vs untreated controls
Method in brief: as §1

[5] = system: Amaranthus retroflexus; assay: as above; details: application rate 1280 g/ha, rated visually after about 3 weeks, Table C5
Method in brief: as §1

[6] = system: Abutilon theophrasti; assay: as above; details: application rate 1280 g/ha, rated visually after about 3 weeks, Table C4
Method in brief: as §1

[7] = system: Poa annua; assay: as above; details: application rate 1280 g/ha, rated visually after about 3 weeks, Table C2
Method in brief: as §1

[8] = system: Polygonum convolvulus; assay: Pre-emergence herbicidal action, greenhouse, 320 g/ha; details: application rate 320 g/ha, scored visually after about 3 weeks vs untreated controls
Method in brief: (§2)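 After seeding and covering with soil, pots received a surface spray of the formulated compound containing 0.5% additive and were then grown for about 3 weeks. Activity was estimated by eye as a percentage of damage compared with untreated plants.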

[9] = system: Digitaria sanguinalis; assay: as above; details: application rate 320 g/ha, Table B9
Method in brief: as §2

[10] = system: Stellaria media; assay: Herbicidal pre-emergence action (Part 2), 1280 g/ha; details: application rate 1280 g/ha, scored visually after about 3 weeks, Table D8
Method in brief: (§3)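 Sow seeds in sandy loam, cover with soil. Apply compound (WP or EC, aqueous, 0.5% additive, 600 L/ha) onto covering soil. Grow in greenhouse about 3 weeks, then rate visually as % effect against untreated controls.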

[11] = system: Matricaria inodora; assay: as above; details: application rate 1280 g/ha, scored visually after about 3 weeks, Table D7
Method in brief: as §3

[12] = system: Setaria viridis; assay: as above; details: application rate 1280 g/ha, scored visually after about 3 weeks, Table D4
Method in brief: as §3

[13] = system: Echinochloa crus-galli; assay: as above; details: application rate 1280 g/ha, scored visually after about 3 weeks, Table D1
Method in brief: as §3

[14] = system: Amaranthus retroflexus; assay: as above; details: application rate 1280 g/ha, scored visually after about 3 weeks, Table D6
Method in brief: as §3

[15] = system: Abutilon theophrasti; assay: as above; details: application rate 1280 g/ha, scored visually after about 3 weeks, Table D5
Method in brief: as §3

[16] = system: Poa annua; assay: as above; details: application rate 1280 g/ha, scored visually after about 3 weeks, Table D3
Method in brief: as §3

[17] = system: Lolium rigidum; assay: as above; details: application rate 1280 g/ha, scored visually after about 3 weeks, Table D2
Method in brief: as §3

CC1CC(O)N(c2cc(C(C)(C)C)on2)C(=O)N1C (centres unmarked) [I.41-162, 1-(5-tert-Butyl-1,2-oxazol-3-yl)-6-hydroxy-3,4-dimethyltetrahydropyrimidin-2(1H)-one]
100%: Stellaria media [1] | Matricaria inodora [2] | Setaria viridis [3] | Echinochloa crus-galli [4] | Amaranthus retroflexus [5] | Abutilon theophrasti [6] | Poa Annua [7] | Polygonum convolvulus (efficacy in %) [8] | Digitaria sanguinalis (efficacy in %) [9] | Stellaria media [10] | Matricaria inodora [11] | Setaria viridis [12] | Echinochloa crus-galli [13] | Amaranthus retroflexus [14] | Abutilon theophrasti [15] | Poa Annua [16] | Lolium rigidum [17]
